Experimental findings from patent US11123295B2, “Encholeated antifungal compounds for central nervous system delivery and treatment of Cryptococcus infections” (priority 2016, dated 2021) are described below.

Holding throughout (type): in vivo
Experiment [1] deals with C. neoformans strain H99. Nature of the experiment: Trial 2: survival of C. neoformans-infected mice. The settings on record: oral 250 mg/kg/day in drinking water. How it is done: Mice were inoculated with C. neoformans, strain H99/ATCC 208821, (American Type Culture Collection, Rockville, Md.), which was prepared as follows. Cells from a C. neoformans suspension were streaked onto yeast extract peptone dextrose (YPD) agar plates, which were then incubated at 37° C. for 48 hours. A well-separated colony was resuspended in 25 milliliters YPD broth containing chloramphenicol and incubated in a flask on a shaking incubator at 37° C. overnight. The cells were recovered by centrifugation at 4,000 rpm for 5 minutes and washed two times in phosphate-buffered saline (PBS) by resuspension and centrifugation. Challenge organisms were quantified by hemocytometry and were diluted with PBS to a final concentration of 10^5 organisms per milliliter. The viable count was confirmed by serially diluting the C. neoformans suspension and plating the inoculum onto YPD agar plates. […]
Survival and brain studies for each of the three trials were used to determine antifungal efficacy. Mortality was recorded throughout each of the three trials. […] The microbiological response to antifungal treatment was evaluated by concentration (in CFU per gram) of C. neoformans in brain tissue. […] Culture plates were incubated at 37° C. for 48 hours, after which the CFU were counted and the number of CFU per gram of brain tissue was calculated. […] The culture-negative plates were counted as having 0 CFU/g. […]

The subject of experiment [2] is C. neoformans strain H99. The experiment in a line: Trial 3: survival of C. neoformans-infected mice. The procedure:
(§1) Animals were dosed once or twice daily as stated in Table 3 following daily body weight measurements. 5 mice were used per treatment group and a group of 5 infected, untreated mice was used as a control. […] Fluconazole, where indicated, was dosed either alone or in combination at 25 mg/kg/day in two doses by oral gavage. Agent administration began 72 hours following infection and continued once daily for 28 consecutive days.
Survival and brain studies for each of the three trials were used to determine antifungal efficacy. Mortality was recorded throughout each of the three trials. The animals were necropsied at death and the brain was removed aseptically, weighed, and homogenized in 1 milliliter sterile water. The microbiological response to antifungal treatment was evaluated by concentration (in CFU per gram) of C. neoformans in brain tissue. Serial dilutions using sterile PBS of homogenized brain were plated in duplicate onto YPD agar plates. Culture plates were incubated at 37° C. for 48 hours, after which the CFU were counted and the number of CFU per gram of brain tissue was calculated. The method was sensitive for detection of >10 CFU/g. The culture-negative plates were counted as having 0 CFU/g.

Experiment [3] concerns C. neoformans strain H99. Nature of the experiment: Trial 3: CFU per gram of brain tissue at death. The settings on record: PO BID 25 mg/kg/day, individual mice 1-5. The procedure:
as §1
Survival and brain studies for each of the three trials were used to determine antifungal efficacy. Mortality was recorded throughout each of the three trials. The animals were necropsied at death and the brain was removed aseptically, weighed, and homogenized in 1 milliliter sterile water. The microbiological response to antifungal treatment was evaluated by concentration (in CFU per gram) of C. neoformans in brain tissue. Serial dilutions using sterile PBS of homogenized brain were plated in duplicate onto YPD agar plates. Culture plates were incubated at 37° C. for 48 hours, after which the CFU were counted and the number of CFU per gram of brain tissue was calculated. The method was sensitive for detection of >10 CFU/g. The culture-negative plates were counted as having 0 CFU/g. […]

Structures are written as SMILES. Values joined by “and” are separate entries in the source; they are usually repeats but may differ in a detail not shown here. Equal entries are not always repeated.

Turning to `Nc1[nH]c(=O)ncc1F` [5-Flucytosine], the values for the Median survival with C. neoformans strain H99 [1] and in the experiment on C. neoformans strain H99 [2] (oral 250 mg/kg/day in water) were 34 days and 47 days, respectively.
Turning to `OC(Cn1cncn1)(Cn1cncn1)c1ccc(F)cc1F` [Fluconazole], the “Number of CFU/g of Brain” value in the experiment with C. neoformans strain H99 [3] is 4,200,000 CFU/g and 4,300,000 CFU/g and 3,900,000 CFU/g and 6,800,000 CFU/g and 11,300,000 CFU/g. Further, the “Median survival” value in the experiment with C. neoformans strain H99 [2] (PO BID 25 mg/kg/day) came out at 53 days.
